From patent publication US20120046272A1, “Novel Therapeutic Compounds” (GRUNENTHAL GMBH, priority 2010, published 2012)

Test system: mice
Experiment: Hot plate model of acute thermal pain
Type: in vivo
Conditions: hot plate 46.0° C.±1.0° C, tested prior to and 30 min after drug administration, cut-off 120 s
Experimental: The device consisted of an electrically heated surface and an open plexiglass tube (34 cm high×44 cm diameter), as per the hot plate test adapted from Eddy and Leimbach (1953); The animals were confined to the heated surface. The temperature was kept at 46.0° C.±1.0° C. Mice were placed on the hot plate, and the time, recorded with a stopwatch, until either licking of the hind paw or jumping were initiated. Animals were tested prior to and 30 min after drug administration. The pre-drug latencies were between 17 and 45 s. The maximum possible effect (MPE) was defined as the lack of a nociceptive response during the exposure to the heat stimulus. The percentage of MPE was calculated according to the formula: [(T1−T0)/(T2−T0)]×100, where T0 and T1 were the latencies obtained before and after drug injection, and T2 was the cut-off time (120 s).
Data are expressed as mean (±SEM) % MPE. p<0.05 versus vehicle control.

Compound	antinociception in hot plate test (% MPE)
CN1CC[C@]23c4c5ccc(O)c4O[C@H]2[C@@H](O)C=C[C@H]3[C@H]1C5 [morphine]	induced dose-dependent antinociception and reached full efficacy
CCC(c1cccc(OC(=O)CC2(CN)CCCCC2)c1)C(C)CN(C)C (centres unmarked) [Compound of Formula 25]	induced dose-dependent antinociception and reached full efficacy
